Measured values from patent US9868720B2 (Genentech, Inc., priority 2013, dated 2018).

biological target: DLK kinase (N-terminally GST-tagged DLK, catalytic domain amino acid 1-520) (Homo sapiens (Human), UniProt Q12852); assay: DLK TR-FRET assay; type: biochemical; details: 30 μM ATP, MKK4 K131M substrate, read-out: DLK HTRF (Ki)
Procedure: DLK TR-FRET assay: DLK kinase reactions (20 μL) containing 5 nM N-terminally GST-tagged DLK (catalytic domain amino acid 1-520) (Carna Bioscience), 40 nM N-terminally HIS-tagged MKK4 K131M substrate, and 30 μM ATP in kinase reaction buffer (50 mM HEPES, pH 7.5, 0.01% Triton X-100, 0.01% Bovine γ-Globulins, 2 mM DTT, 10 mM MgCl2 and 1 mM EGTA), and testing compound 1:3 serial diluted starting at 20 uM were incubated at ambient temperature for 60 minutes in 384 well OptiPlate (Perkin Elmer). To quench kinase reactions and detect phosphorylated MKK4, 15 μL of TR-FRET antibody mixture containing 2 nM anti-phosphorylated MKK4 labeled with Europium cryptate (Cisbio) and 23 nM anti-HIS labeled with D2 (Cisbio) in detection buffer (25 mM Tris pH 7.5, 100 mM NaCl, 100 mM EDTA, 0.01% Tween-20, and 200 mM KF) was added to the reaction mixture. The detection mixture was incubated for 3 hours at ambient temperature and the TR-FRET was detected with an EnVision multilabel plate reader (Perkin-Elmer) using the LANCE/DELFIA Dual Enh label from Perkin-Elmer (excitation filter: UV2 (TRF) 320 and emission filters: APC 665 and Europium 615).

Chain of DLK kinase (N-terminally GST-tagged DLK, catalytic domain amino acid 1-520) (Q12852 1-520): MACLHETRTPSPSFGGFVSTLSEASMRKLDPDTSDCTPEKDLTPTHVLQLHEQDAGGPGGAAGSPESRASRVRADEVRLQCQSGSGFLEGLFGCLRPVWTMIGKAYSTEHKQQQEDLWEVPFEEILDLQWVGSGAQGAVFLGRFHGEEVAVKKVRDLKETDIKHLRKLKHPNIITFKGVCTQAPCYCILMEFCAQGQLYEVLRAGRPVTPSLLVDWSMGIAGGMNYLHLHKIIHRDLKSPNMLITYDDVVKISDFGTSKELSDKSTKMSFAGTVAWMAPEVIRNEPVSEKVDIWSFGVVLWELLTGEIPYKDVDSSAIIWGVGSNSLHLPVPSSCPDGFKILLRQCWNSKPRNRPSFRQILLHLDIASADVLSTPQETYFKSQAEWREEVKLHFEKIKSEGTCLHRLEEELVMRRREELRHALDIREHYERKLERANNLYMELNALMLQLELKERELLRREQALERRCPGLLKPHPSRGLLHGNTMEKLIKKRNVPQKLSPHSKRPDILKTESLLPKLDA

SMILES | Ki [nM]
CC(C)Oc1nc(Nc2cc(C(F)(F)F)ccn2)cc(C2CCOCC2)n1 [Example 350, [2-Isopropoxy-6-(tetrahydro-pyran-4-yl)-pyrimidin-4-yl]-(4-trifluoromethyl-pyridin-2-yl)-amine] | 47.5
CC(=O)N1CC(c2cc(Nc3cc(C(F)(F)F)ccn3)nc(C3CC3)n2)C1 [Example 356, 1-{3-[2-Cyclopropyl-6-(4-trifluoromethyl-pyridin-2-ylamino)-pyrimidin-4-yl]-azetidin-1-yl}-ethanone] | 101
CN1CCCC(c2cc(Nc3cc(C(F)(F)F)ccn3)nc(N3CC(N4CCOCC4)C3)n2)C1 (stereo not shown) [Example 371, [6-(1-Methyl-piperidin-3-yl)-2-(3-morpholin-4-yl-azetidin-1-yl)-pyrimidin-4-yl]-(4-trifluoromethyl-pyridin-2-yl)-amine] | 636
O=C(C(F)F)N1CCC(c2cc(Nc3cc(C(F)(F)F)ccn3)nc(N3CC4CCC(C3)O4)n2)C1 (stereo not shown) [Example 373, 2,2-Difluoro-1-{3-[2-(8-oxa-3-aza-bicyclo[3.2. 1]oct-3-yl)-6-(4-trifluoro-methyl-pyridin-2-ylamino)-pyrimidin-4-yl]-pyrrolidin-1-yl}-ethanone] | 173
C[C@@H]1CCCN1c1nc(Nc2cc(C(F)(F)F)ccn2)cc(C2CN(S(C)(=O)=O)C2)n1 [Example 374, [6-(1-Methanesulfonyl-azetidin-3-yl)-2-((R)-2-methyl-pyrrolidin-1-yl)-pyrimidin-4-yl]-(4-trifluoromethyl-pyridin-2-yl)-amine] | 30.6
CC(=O)N1CC(c2cc(Nc3cc(C(F)(F)F)ccn3)nc(N3CCC[C@H]3C)n2)C1 [Example 375, 1-{3-[2-((R)-2-Methyl-pyrrolidin-1-yl)-6-(4-trifluoromethyl-pyridin-2-ylamino)-pyrimidin-4-yl]-azetidin-1-yl}-ethanone] | 11.1
CC1CCCN1c1nc(Nc2cc(C(F)(F)F)ccn2)cc(C2CCN(C(=O)c3cn(C)cn3)C2)n1 (stereo not shown) [Example 376, (1-Methyl-1H-imidazol-4-yl)-{3-[2-(2-methyl-pyrrolidin-1-yl)-6-(4-trifluoromethyl-pyridin-2-ylamino)-pyrimidin-4-yl]-pyrrolidin-1-yl}-methanone] | 1.72
CS(=O)(=O)N1CCCC(c2cc(Nc3cc(C(F)(F)F)ccn3)nc(C3CCCC3)n2)C1 (stereo not shown) [Example 385, [2-Cyclopentyl-6-(1-methanesulfonyl-piperidin-3-yl)-pyrimidin-4-yl]-(4-trifluoromethyl-pyridin-2-yl)-amine] | 36.8
Cn1nccc1-c1nc(Nc2cc(C(F)(F)F)ccn2)cc(C2CCN(CC3CCOCC3)C2)n1 (stereo not shown) [Example 388, {2-(2-Methyl-2H-pyrazol-3-yl)-6-[1-(tetrahydro-pyran-4-ylmethyl)-pyrrolidin-3-yl]-pyrimidin-4-yl]-(4-trifluoromethyl-pyridin-2-yl)-amine] | 8.75
FC(F)(F)c1ccnc(Nc2cc(C3CCCN(C4COC4)C3)nc(C3CCCC3)n2)c1 (stereo not shown) [Example 391, [2-Cyclopentyl-6-(1-oxetan-3-yl-piperidin-3-yl)-pyrimidin-4-yl]-(4-trifluoromethyl-pyridin-2-yl)-amine] | 9
O=C1CC(c2cc(Nc3cc(C(F)(F)F)ccn3)nc(C3CCOC3)n2)CCN1 (stereo not shown) [Example 392, 4-[2-(Tetrahydro-furan-3-yl)-6-(4-trifluoromethyl-pyridin-2-ylamino)-pyrimidin-4-yl]-piperidin-2-one] | 120
CC(C)c1nc(Nc2cc(C(F)(F)F)ccn2)cc(C2CN(C3COC3)C2)n1 [Example 399, [2-Isopropyl-6-(1-oxetan 3-yl-azetidin-3-yl)-pyrimidin-4-yl]-(4-trifluoromethyl-pyridin-2-yl)-amine] | 281
CS(=O)(=O)N1CCCC(c2cc(Nc3cc(C(F)(F)F)ccn3)nc(C3CCOC3)n2)C1 (stereo not shown) [Example 401, [6-(1-Methanesulfonyl-piperidin-3-yl)-2-(tetrahydro-furan-3-yl)-pyrimidin-4-yl]-(4-trifluoromethyl-pyridin-2-yl)-amine] | 122
